Reference: ChEMBL document CHEMBL3875216, “Synthesis of antimicrobial glucosamides as bacterial quorum sensing mechanism inhibitors” (Bioorg Med Chem, 2017)

Key:
[1] = system: Pseudomonas aeruginosa; assay: Growth inhibition of Pseudomonas aeruginosa MH602 at 1 mM after 8 hrs relative to control; details: MH602, 8 h, read-out: GI
[2] = system: Pseudomonas aeruginosa; assay: Growth inhibition of Pseudomonas aeruginosa PA14 at 2 mM after 24 hrs relative to control; details: 2000 µM
[3] = system: Escherichia coli; assay: Growth inhibition of Escherichia coli MT102 at 1 mM after 24 hrs relative to control; details: MT102, 24 h, read-out: GI
[4] = system: Pseudomonas aeruginosa PA14; assay: Inhibition of quorum sensing-regulated pyocyanin production in Pseudomonas aeruginosa PA14 at 2 mM after 24 hrs relative to control
[5] = system: Pseudomonas aeruginosa; assay: Inhibition of LasR-dependent quorum sensing activity in Pseudomonas aeruginosa MH602 harboring GFP-fused […] LasB promoter assessed as inhibition of 3-oxo-dodecanoyl HSL-induced GFP expression at 2 mM measured after 24 hrs by fluorescence assay relative to control
[6] = system: Pseudomonas aeruginosa; assay: Growth inhibition of Pseudomonas aeruginosa MH602 at 2 mM after 8 hrs relative to control; details: MH602, 8 h, read-out: GI
[7] = system: Pseudomonas aeruginosa; assay: Growth inhibition of Pseudomonas aeruginosa MH602 at 1 mM after 24 hrs relative to control; details: MH602, 24 h, read-out: GI
[8] = system: Escherichia coli; assay: Growth inhibition of Escherichia coli MT102 at 1 mM after 8 hrs relative to control; details: MT102, 8 h, read-out: GI
[9] = system: Escherichia coli; assay: Inhibition of LuxR-dependent quorum sensing activity in Escherichia coli MT102 harboring pJBA132 assessed as inhibition of OHHL-induced GFP expression at 1 mM measured after 24 hrs by fluorescence assay relative to control
[10] = system: Escherichia coli; assay: Growth inhibition of Escherichia coli MT102 at 2 mM after 24 hrs relative to control; details: MT102, 24 h, read-out: GI
[11] = system: Escherichia coli; assay: Growth inhibition of Escherichia coli MT102 at 500 uM after 8 hrs relative to control; details: MT102, 8 h, read-out: GI
[12] = system: Escherichia coli; assay: Inhibition of LuxR-dependent quorum sensing activity in Escherichia coli MT102 harboring pJBA132 assessed as inhibition of OHHL-induced GFP expression at 500 uM measured after 8 hrs by fluorescence assay relative to control
[13] = system: Pseudomonas aeruginosa; assay: Growth inhibition of Pseudomonas aeruginosa MH602 at 500 uM after 24 hrs relative to control; details: MH602, 24 h, read-out: GI
[14] = system: Pseudomonas aeruginosa; assay: Inhibition of LasR-dependent quorum sensing activity in Pseudomonas aeruginosa MH602 harboring GFP-fused […] LasB promoter assessed as inhibition of 3-oxo-dodecanoyl HSL-induced GFP expression at 1 mM measured after 24 hrs by fluorescence assay relative to control
[15] = system: Escherichia coli; assay: Inhibition of LuxR-dependent quorum sensing activity in Escherichia coli MT102 harboring pJBA132 assessed as inhibition of OHHL-induced GFP expression at 1 mM measured after 8 hrs by fluorescence assay relative to control
[16] = system: Pseudomonas aeruginosa; assay: Growth inhibition of Pseudomonas aeruginosa MH602 at 500 uM after 8 hrs relative to control; details: MH602, 8 h, read-out: GI
[17] = system: Escherichia coli; assay: Growth inhibition of Escherichia coli MT102 at 500 uM after 24 hrs relative to control; details: MT102, 24 h, read-out: GI
[18] = system: Escherichia coli; assay: Inhibition of LuxR-dependent quorum sensing activity in Escherichia coli MT102 harboring pJBA132 assessed as inhibition of OHHL-induced GFP expression at 2 mM measured after 24 hrs by fluorescence assay relative to control
[19] = system: Pseudomonas aeruginosa; assay: Inhibition of LasR-dependent quorum sensing activity in Pseudomonas aeruginosa MH602 harboring GFP-fused […] LasB promoter assessed as inhibition of 3-oxo-dodecanoyl HSL-induced GFP expression at 500 uM measured after 24 hrs by fluorescence assay relative to control
[20] = system: Escherichia coli; assay: Growth inhibition of Escherichia coli MT102 at 2 mM after 8 hrs relative to control; details: MT102, 8 h, read-out: GI
[21] = system: Escherichia coli; assay: Inhibition of LuxR-dependent quorum sensing activity in Escherichia coli MT102 harboring pJBA132 assessed as inhibition of OHHL-induced GFP expression at 2 mM measured after 8 hrs by fluorescence assay relative to control
[22] = system: Pseudomonas aeruginosa; assay: Inhibition of LasR-dependent quorum sensing activity in Pseudomonas aeruginosa MH602 harboring GFP-fused […] LasB promoter assessed as inhibition of 3-oxo-dodecanoyl HSL-induced GFP expression at 1 mM measured after 8 hrs by fluorescence assay relative to control
[23] = system: Pseudomonas aeruginosa; assay: Growth inhibition of Pseudomonas aeruginosa MH602 at 2 mM after 24 hrs relative to control; details: MH602, 24 h, read-out: GI
[24] = system: Pseudomonas aeruginosa PA14; assay: Inhibition of quorum sensing-regulated biofilm formation in Pseudomonas aeruginosa PA14 at 2 mM after overnight incubation by crystal violet staining based assay relative to control
[25] = system: Pseudomonas aeruginosa; assay: Inhibition of LasR-dependent quorum sensing activity in Pseudomonas aeruginosa MH602 harboring GFP-fused […] LasB promoter assessed as inhibition of 3-oxo-dodecanoyl HSL-induced GFP expression at 500 uM measured after 8 hrs by fluorescence assay relative to control
[26] = system: Pseudomonas aeruginosa; assay: Inhibition of LasR-dependent quorum sensing activity in Pseudomonas aeruginosa MH602 harboring GFP-fused […] LasB promoter assessed as inhibition of 3-oxo-dodecanoyl HSL-induced GFP expression at 2 mM measured after 8 hrs by fluorescence assay relative to control
[27] = system: Escherichia coli; assay: Inhibition of LuxR-dependent quorum sensing activity in Escherichia coli MT102 harboring pJBA132 assessed as inhibition of OHHL-induced GFP expression at 500 uM measured after 24 hrs by fluorescence assay relative to control

Row | Structure (SMILES) | inhibition at 1000 µM [1] | growth inhibition (GI) [2] | inhibition at 1000 µM [3] | inhibition [4] | inhibition [5] | inhibition at 2000 µM [6] | inhibition at 1000 µM [7] | inhibition at 1000 µM [8] | inhibition [9] | inhibition at 2000 µM [10] | inhibition at 500 µM [11] | inhibition [12] | inhibition at 500 µM [13] | inhibition at 500 µM [16] | inhibition at 500 µM [17] | inhibition [18] | inhibition at 2000 µM [20] | inhibition [22] | inhibition at 2000 µM [23] | inhibition [24] | other results
1 | O=C(Cc1ccc(Cl)cc1)N[C@@H]1[C@@H](O)[C@H](O)[C@@H](CO)O[C@H]1O | 0% | Non-Toxic | 7.4% | 11.9% | 8.7% | 0% | 0% | 0% | 4.6% | 4.5% | 0% | 5.6% | 0% | 1.3% | 11.2% | 2.8% | 0% | 3.4% | 0% | 15.3% | inhibition [14]: 7%; inhibition [15]: 2%; inhibition [19]: 7%; inhibition [21]: 4.3%
2 | COc1ccc(CC(=O)N[C@H]2[C@H](OC(C)=O)O[C@H](COC(C)=O)[C@@H](OC(C)=O)[C@@H]2OC(C)=O)cc1 | 0% | Non-Toxic | 0% | 0.4% | 18.6% | 0% | 0% | 0% | 28.7% | 0% | 0% | 6.6% | 3.9% | 0% | 4.5% | 25.4% | 0% | 9.6% | 0% | 5.6% | inhibition [14]: 19.4%; inhibition [25]: 4.2%; inhibition [19]: 17.8%; inhibition [26]: 0.9%
3 | O=C(CCCc1ccccc1)N[C@@H]1[C@@H](O)[C@H](O)[C@@H](CO)O[C@H]1O | 2.1% | Non-Toxic | 8.8% |  | 17.4% | 15.8% | 2% | 0% | 46.7% | 2.7% | 17.9% | 8.7% | 0% | 2.6% | 7.7% | 85% | 21.2% | 9.9% | 0% | 4.8% | inhibition [27]: 4.3%; inhibition [25]: 5.6%; inhibition [15]: 43.4%; inhibition [21]: 76.2%; inhibition [26]: 38.9%
4 | CC(=O)OC[C@H]1O[C@@H](OC(C)=O)[C@H](NC(=O)Cc2c[nH]c3ccccc23)[C@@H](OC(C)=O)[C@@H]1OC(C)=O | 0% | Non-Toxic | 1.8% | 1.5% | 12.5% | 0% | 0% | 0% |  | 15.1% | 0% |  | 0% | 0% | 2.8% | 24.2% | 0% | 4% | 4.6% | 0.5% | inhibition [14]: 12.5%; inhibition [19]: 12.1%
5 | COc1ccc(CC(=O)N[C@@H]2[C@@H](O)[C@H](O)[C@@H](CO)O[C@H]2O)cc1 | 0% | Non-Toxic | 0% |  | 3% | 0% | 3.3% | 0% | 20.2% | 3% | 0% | 6.7% | 2.9% | 0% | 0% | 2.6% | 0% | 7.5% | 0% | 16.6% | inhibition [27]: 16%; inhibition [25]: 3.2%; inhibition [15]: 10.1%; inhibition [21]: 3.5%; inhibition [26]: 0.8%
6 | O=C(Cc1ccc(C(F)(F)F)cc1)N[C@@H]1[C@@H](O)[C@H](O)[C@@H](CO)O[C@H]1O | 0% | Non-Toxic | 0% | 6.6% | 10.6% | 0% | 7.8% | 0% |  | 2.5% | 0% | 11.4% | 4.4% | 0% | 1.2% |  | 0% | 7.1% | 5.8% | 17.8% | inhibition [14]: 10.3%; inhibition [25]: 2.4%; inhibition [15]: 10.1%; inhibition [19]: 10.6%; inhibition [21]: 12.8%; inhibition [26]: 3.3%
